Source: ChEMBL document CHEMBL3616404, “Expanding the chemical space of human serine racemase inhibitors” (Bioorg Med Chem Lett, 2015)
pKi: −log10 of the molar value.

Key:
[1] = target: T1, Serine racemase (Homo sapiens) (UniProt Q9GZT4); experiment: Inhibition of hexa-His-tagged purified human recombinant serine racemase expressed in Escherichia coli BL21 Codonplus (DE3)-RIL cells assessed as reduction in beta-elimination of L-serine at 5 mM by spectrophotomtery
T1 sequence (whole entry): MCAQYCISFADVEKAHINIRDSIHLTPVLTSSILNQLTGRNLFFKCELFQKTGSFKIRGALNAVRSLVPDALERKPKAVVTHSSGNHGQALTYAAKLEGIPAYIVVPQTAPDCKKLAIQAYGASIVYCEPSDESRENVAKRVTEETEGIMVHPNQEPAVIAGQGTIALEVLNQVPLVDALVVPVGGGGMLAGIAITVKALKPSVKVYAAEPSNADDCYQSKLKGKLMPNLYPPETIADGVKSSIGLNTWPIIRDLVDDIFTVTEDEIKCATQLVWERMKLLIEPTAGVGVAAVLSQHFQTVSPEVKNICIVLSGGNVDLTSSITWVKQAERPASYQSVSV

[2] = target: T2, Serine racemase (Homo sapiens, UniProt Q9GZT4); experiment: Inhibition of hexa-His-tagged purified human recombinant serine racemase expressed in Escherichia coli BL21 Codonplus (DE3)-RIL cells assessed as reduction in beta-elimination of L-serine at by spectrophotomtery
T2 sequence (Q9GZT4 whole entry): T1 sequence (whole entry)

[3] = target: T1, Serine racemase (Homo sapiens); experiment: Inhibition of hexa-His-tagged purified human recombinant serine racemase expressed in Escherichia coli BL21 Codonplus (DE3)-RIL cells assessed as reduction in beta-elimination of L-serine at 2.8 mM by spectrophotomtery
[4] = target: T2, Serine racemase; experiment: Inhibition of human recombinant serine racemase expressed in Escherichia coli Rosetta 2 (DE3) cells using L-serine as substrate by horseradish peroxidase based couple assay
[5] = target: T1, Serine racemase (Homo sapiens); settings: 330 uM
Description: Inhibition of hexa-His-tagged purified human recombinant serine racemase expressed in Escherichia coli BL21 Codonplus (DE3)-RIL cells assessed as reduction in beta-elimination of L-serine at 330 uM by spectrophotomtery

**Q.** Which results are given for `O=C(O)NCS(=O)(=O)c1cccs1`?
**A.** inhibition [1]: 70%; pKi [2]: 2.82

**Q.** Which inhibition [1] does the source give for `O=C(O)CC1(C(=O)O)CN2CCC1CC2` (stereo unspecified) here?
**A.** 2%

**Q.** And the pKi [2]?
**A.** < 2.00

**Q.** Which inhibition [3] does the source give for `O=C(O)CC(CC(=O)O)C(=O)O` [TRICARBALLYLIC ACID] here?
**A.** 59%

**Q.** What about the pKi [2] of the same molecule?
**A.** 2.89

**Q.** For `CN1C(=O)C(=CNC(CC(=O)O)C(=O)O)C(=O)N(C)C1=O` (stereo unspecified), which inhibition [1] is on record?
**A.** 66%

**Q.** And the pKi [2]?
**A.** 2.77

**Q.** How did the inhibition [3] turn out when `O=[N+]([O-])c1cccnc1SCC(O)CO` (stereo unspecified) was run?
**A.** 0%

**Q.** `O=C(O)COCC(=O)Cc1cc(SCCO)cc([N+](=O)[O-])c1` was tested. Which inhibition [3] did it give?
**A.** 29%

**Q.** And the pKi [2]?
**A.** 2.35

**Q.** With `CC[C@H](NS(=O)(=O)c1ccc([N+](=O)[O-])cc1)C(=O)O` as the molecule, how does the inhibition [1] read?
**A.** 70%

**Q.** What about the pKi [2] of the same molecule?
**A.** 2.82

**Q.** Which results are given for `O=C(O)CC(=O)O` [MALONIC ACID]?
**A.** pKi [2]: 4.18; pKi [4]: 4.23; inhibition [5]: 76%
